Data as given in ChEMBL document CHEMBL3272000, “Local anesthetics. 2-Diethylamino-2',6'-acylxylidides” (J Med Chem, 1976).

Columns and labels:
Rattus norvegicus [1] = assay: Local anesthetic activity in rat assessed as frequency of motor activity block at 2 % injected around sciatic nerve; type: functional
Rattus norvegicus [2] = assay: Local anesthetic activity in rat assessed as frequency of motor activity block at 0.125 % injected around sciatic nerve; type: functional
Rattus norvegicus [3] = assay: Local anesthetic activity in rat assessed as time duration of motor activity block at 0.25 % injected around sciatic nerve; type: functional
Rattus norvegicus [4] = assay: Local anesthetic activity in rat assessed as time duration of motor activity block at 0.50 % injected around sciatic nerve; type: functional
Rattus norvegicus [5] = assay: Local anesthetic activity in rat assessed as time duration of motor activity block at 1 % injected around sciatic nerve; type: functional
Rattus norvegicus [6] = assay: Local anesthetic activity in rat assessed as time duration of motor activity block at 2 % injected around sciatic nerve; type: functional
Rattus norvegicus [7] = assay: Local anesthetic activity in rat assessed as time duration of motor activity block at 0.125 % injected around sciatic nerve; type: functional
[8] = Toxicity in ip dosed rat; type: organism-based; conditions: in vivo
[9] = Ionization constant, pKa of the compound; type: physicochemical
Rattus norvegicus [10] = assay: Local anesthetic activity in rat assessed as frequency of motor activity block at 0.25 % injected around sciatic nerve; type: functional
Rattus norvegicus [11] = assay: Local anesthetic activity in rat assessed as frequency of motor activity block at 0.50 % injected around sciatic nerve; type: functional
Rattus norvegicus [12] = assay: Local anesthetic activity in rat assessed as frequency of motor activity block at 1 % injected around sciatic nerve; type: functional

Row | Structure (SMILES) | Activity (Rattus norvegicus [1]) [%] | Activity (Rattus norvegicus [2]) [%] | Time (Rattus norvegicus [3]) [min] | Time (Rattus norvegicus [4]) [min] | Time (Rattus norvegicus [5]) [min] | Time (Rattus norvegicus [6]) [min] | Time (Rattus norvegicus [7]) [min] | LD50 [8] [mg/kg] | pKa [9] | Activity (Rattus norvegicus [10]) [%] | Activity (Rattus norvegicus [11]) [%] | Activity (Rattus norvegicus [12]) [%]
1 | CCCC(C(=O)Nc1c(C)cccc1C)N(CC)CC.Cl (stereo unspecified) | 100 | 100 | 123 | 140 | 179 | 268 | 117 | 51 | 7.89 | 100 | 100 | 100
2 | CCN(CC)CC(=O)Nc1c(C)cccc1C [LIDOCAINE] | 100 |  | 102 | 123 | 162 | 185 |  |  |  | 100 | 100 | 100
3 | CCC(C(=O)Nc1c(C)cccc1C)N(CC)CC.Cl (stereo unspecified) | 100 | 100 | 235 | 297 | 308 | 318 | 156 | 54 | 7.91 | 100 | 100 | 100
4 | CCCCC(C(=O)Nc1c(C)cccc1C)N(CC)CC.Cl (stereo unspecified) | 80 | 80 | 111 | 119 | 196 | 246 | 92 | 44 | 7.81 | 60 | 100 | 100
5 | CCN(CC)C(C)C(=O)Nc1c(C)cccc1C (stereo unspecified) | 100 | 100 | 92 | 104 | 114 | 160 | 82 | 89 | 8.12 | 100 | 100 | 100
